Data published in patent US8741579B2, “Compounds and methods for the modulation of beta-1 integrin function to mediate tissue repair” (priority 2007, dated 2014).
Where a SMILES comes first, the peptide text is derived from it. The star is where a group is joined. Cbz = O=C(OCc1ccccc1)*; CH2F = FC*

Tests used:
[1] = molecular target: human beta 1 integrin (Integrin beta-1 precursor, Fibronectin receptor subunit beta, Integrin VLA-4 subunit beta, CD29 antigen) (human) (UniProt P05556); test: cell-based or functional assay
[2] = system: adult human lung fibroblasts (CCD-8Lu) overlayered with NCI-H441 cells; test: Caspase 3/7 activity (Caspase-Glo 3/7) in human lung co-culture under cyclic stretch; assay type: cell-based; conditions: cyclic stretch 6 hours; JB1a 1 μg/ml; ZVAD-fmk 10 or 20 μM
Procedure: (§1) Adult human lung fibroblasts (CCD-8Lu) were seeded onto collagen I coated BioFlex 6 well plates at 0.5×10^6/well. The following day, NCI-H441 were seeded on top of the fibroblasts at the same density. […] Cells were starved with media containing 0.1% FCS. The plates were subjected to stretching at 0-5%, 0-10% or 2-10% sinusoidal stretch at 1 Hz for 6 hours. Control plates on plastic or bioflex plates without stretch were also included. PPE was added at 0.06 or 0.3 U/ml alone or in combination with JB1a (1 μg/ml) and ZVAD-fmk at 10 or 20 μM. At the end of the 6 hour period, the media was aspirated and caspase 3 activity assayed using Caspase-Glo™ 3/7 (Promega) according to the manufacturers' instructions. Separate experiments were performed at up to 6 hours of stretching where the cells were fixed with 4% paraformaldehyde and stained using Alexa-fluor phalloidin and TO-PRO3 (Molecular Probes). Images were acquired using Zeiss Axioskope using a x63 water achroplan objective and analysed using LSM 5 Image software.

[3] = system: adult human lung fibroblasts (CCD-8Lu) overlayered with NCI-H441 cells; test: F-actin aggregates (phalloidin staining) in human lung co-culture under stretch; assay type: cell-based; conditions: stretch up to 6 hours; JB1a 1 μg/ml; ZVAD-fmk
Procedure: as §1

Chain of UniProt P05556 (P05556 21-798 T112H/S215T): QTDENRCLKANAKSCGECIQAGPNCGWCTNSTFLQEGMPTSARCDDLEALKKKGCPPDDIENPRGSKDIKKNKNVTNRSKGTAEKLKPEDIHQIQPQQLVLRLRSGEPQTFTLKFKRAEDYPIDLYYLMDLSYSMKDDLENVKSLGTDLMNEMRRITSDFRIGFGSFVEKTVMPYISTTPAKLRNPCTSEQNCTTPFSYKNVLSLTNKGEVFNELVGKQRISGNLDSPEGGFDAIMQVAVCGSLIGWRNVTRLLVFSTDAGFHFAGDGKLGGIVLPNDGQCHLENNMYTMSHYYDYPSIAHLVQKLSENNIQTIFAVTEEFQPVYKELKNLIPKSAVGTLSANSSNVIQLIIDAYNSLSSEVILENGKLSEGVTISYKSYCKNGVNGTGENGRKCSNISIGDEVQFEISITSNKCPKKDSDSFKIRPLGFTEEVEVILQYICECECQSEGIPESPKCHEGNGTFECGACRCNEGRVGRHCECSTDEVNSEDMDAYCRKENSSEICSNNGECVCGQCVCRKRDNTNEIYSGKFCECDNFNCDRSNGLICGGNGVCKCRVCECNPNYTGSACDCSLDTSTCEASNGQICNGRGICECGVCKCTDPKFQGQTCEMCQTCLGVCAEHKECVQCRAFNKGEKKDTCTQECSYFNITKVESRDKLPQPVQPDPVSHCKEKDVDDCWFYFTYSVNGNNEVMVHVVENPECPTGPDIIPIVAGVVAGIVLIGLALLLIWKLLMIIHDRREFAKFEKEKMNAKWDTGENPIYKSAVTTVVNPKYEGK

| IL-1beta-stimulated IL-8 secretion by primary human chondrocytes, reduction [1] | Compound | elastase-induced caspase 3 and 7 activation [2] | elastase-induced increase in F-actin aggregates [3] |
| --- | --- | --- | --- |
| 50% | JB1a monoclonal antibody (JB1A mouse anti-CD29 (Integrin beta-1 subunit) IgG monoclonal antibody, unconjugated, clone JB1a, Millipore, Catalogue number MAB-1965) |  |  |
|  | COC(=O)C[C@H](NC(=O)[C@H](C)NC(=O)[C@@H](NC(=O)OCc1ccccc1)C(C)C)C(=O)CF [ZVAD-fmk] (Cbz-Val-Ala-Asp(OMe)-CH2F) | inhibited elastase-induced caspase activation | inhibited |
